From article PMC7773174 (Tetrahedron letters, 2020)
≈ marks a conversion by molar mass, not a printed value.

What was measured:
MRSA = conditions: cited from earlier work
[1] = system: MSSA (Staphylococcus aureus SH1000); assay: MIC, broth dilution antimicrobial susceptibility; format: cell-based; conditions: S. aureus SH1000; highest value of three independent trials
[2] = system: red blood cell (RBC), mechanically defibrillated sheep's blood; format: cell-based
Solubility within serum = format: physicochemical; conditions: preliminary analysis
[3] = Partition coefficient by extraction with n-octanol and deionized water; format: physicochemical
[4] = system: HA-MRSA (Staphylococcus aureus ATCC 33591); assay: MIC, broth dilution antimicrobial susceptibility; format: cell-based; conditions: S. aureus ATCC 33591; highest value of three independent trials
[5] = system: plasma binding proteins, namely retinoid binding proteins; assay: Binding to plasma binding proteins; format: in vitro ADME; conditions: unpublished data
[6] = system: Escherichia coli (MC4100); assay: MIC, broth dilution antimicrobial susceptibility; format: cell-based; conditions: highest value of three independent trials
[7] = system: Pseudomonas aeruginosa (PAO1); assay: MIC, broth dilution antimicrobial susceptibility; format: cell-based; conditions: highest value of three independent trials
[8] = system: Enterococcus faecalis (OG1RF); assay: MIC, broth dilution antimicrobial susceptibility; format: cell-based; conditions: highest value of three independent trials
[9] = system: CA-MRSA (Staphylococcus aureus USA 300-0114); assay: MIC, broth dilution antimicrobial susceptibility; format: cell-based; conditions: S. aureus USA 300-0114; highest value of three independent trials

| Molecule | minimum inhibitory concentration (MIC) (MRSA; ref [5]) [µg/mL] | Minimum Inhibitory Concentration MSSA [1] [µM] | Lysis20 [2] [µM] | solubility within serum (Solubility within serum) | P (partition coefficient) ([3]; average over 3 independent trials) | logP ([3]; triplicate, ± standard deviation) | Minimum Inhibitory Concentration HA-MRSA [4] [µM] | binding to plasma binding proteins [5] | MIC (MRSA; ref [6]–[7]) [µg/mL] | Minimum Inhibitory Concentration E. coli [6] [µM] | Minimum Inhibitory Concentration P. aeruginosa [7] [µM] | Minimum Inhibitory Concentration E. faecalis [8] [µM] | Minimum Inhibitory Concentration CA-MRSA [9] [µM] |
| --- | --- | --- | --- | --- | --- | --- | --- | --- | --- | --- | --- | --- | --- |
| O=C(O)c1ccc2cc(-c3ccc(O)c(C45CC6CC(CC(C6)C4)C5)c3)ccc2c1 [Compound 1, CD437, reference compound] | 1 (≈ 2.51 µM) |  |  |  |  |  |  |  |  |  |  |  |  |
| OCc1ccc2cc(-c3ccc(O)c(C45CC6CC(CC(C6)C4)C5)c3)ccc2c1 [Compound 2] |  | 2 | 125 | low solubility | 9.16 | 0.93 ± 0.20 | 2 | high levels of binding | 2 (≈ 5.2 µM) | >250 | >250 | >250 | 2 |
| benzalkonium chloride [BAC, reference compound] |  | 2 | 32 |  |  |  | 4 |  |  | 32 | 125 | 125 | 4 |
